Assay results published in patent US11993600B2, “Saturated spirocyclics as antiviral agents” (ENANTA PHARMACEUTICALS, INC., priority 2021, dated 2024).

Molecular target: SARS-CoV-2 3CL-protease (Severe acute respiratory syndrome coronavirus 2 (2019-nCoV) (SARS-CoV-2), UniProt P0DTD1)
Assay: SARS-CoV-2 3C-like (3CL) protease fluorescence assay (FRET)
Assay type: biochemical
Conditions: recombinant SARS-CoV-2 3CL-protease 10 nM, 30 min preincubation at RT, substrate 40 μM, run in duplicate

| SMILES | IC50 [nM] |
| --- | --- |
| CN(C(=O)c1cc2c(F)cc(F)cc2[nH]1)[C@@H](CC(C)(C)F)C(=O)N1C[C@]2(CCNC2=O)C[C@H]1C#N [Compound 1, N—((S)-1-((3S,5S)-3-cyano-6-oxo-2,7-diazaspiro[4.4]nonan-2-yl)-4-fluoro-4-methyl-1-oxopentan-2-yl)-4,6-difluoro-N-methyl-1H-indole-2-carboxamide] | < 100 |
| CC(C)C[C@@H](C(=O)N1C[C@]2(CCCNC2=O)C[C@H]1C#N)N(C)C(=O)c1cc2c(F)cc(F)cc2[nH]1 [Compound 2, N—((S)-1-((3S,5S)-3-cyano-6-oxo-2,7-diazaspiro[4.5]decan-2-yl)-4-methyl-1-oxopentan-2-yl)-4,6-difluoro-N-methyl-1H-indole-2-carboxamide] | < 100 |
| CN(C(=O)c1cc2c(F)cc(F)cc2[nH]1)[C@@H](CC(C)(C)F)C(=O)N1C[C@]2(CCCNC2=O)C[C@H]1C#N [Compound 3, N—((S)-1-((3S,5S)-3-cyano-6-oxo-2,7-diazaspiro[4.5]decan-2-yl)-4-fluoro-4-methyl-1-oxopentan-2-yl)-4,6-difluoro-N-methyl-1H-indole-2-carboxamide] | < 100 |
| CC(C)C[C@@H](C(=O)N1C[C@]2(CCC3(CC3)NC2=O)C[C@H]1C#N)N(C)C(=O)c1cc2c(F)cc(F)cc2[nH]1 [Compound 4, N—((S)-1-((6S,9S)-9-cyano-5-oxo-4,8-diazadispiro[2.2.4^6.2^3]dodecan-8-yl)-4-methyl-1-oxopentan-2-yl)-4,6-difluoro-N-methyl-1H-indole-2-carboxamide] | < 100 |
